Assay results taken from US10081632B2, “Substituted tetrahydropyrido[3′,2′:4,5]pyrrolo[1,2-α]pyrazine-2-carboxamides as RSK inhibitors” (Phoenix Molecular Designs, priority 2016, dated 2018).

Tests used:
[1] = tested on: SUM149-PTXR cells; test: Monolayer growth inhibition, crystal violet assay; type: cell-based; details: Homo sapiens; SUM149-PTXR (TNBC, BRCA Mutant), 5 days, single dose on day 1
Source text: (§1) In all instances a single dose was given on day 1 of the experiment.

[2] = tested on: 4T1 cells; test: Monolayer growth inhibition, crystal violet assay; type: cell-based; details: Mus musculus; 4T1 (TNBC), 5 days, single dose on day 1
Source text: as §1

[3] = tested on: HCC1143 cells; test: Monolayer growth inhibition, crystal violet assay; type: cell-based; details: Homo sapiens; HCC1143 (TNBC), 5 days, single dose on day 1
Source text: as §1

[4] = tested on: MDA-MB-435 cells; test: Monolayer growth inhibition, crystal violet assay; type: cell-based; details: Homo sapiens; MDA-MB-435 (Melanoma), 5 days, single dose on day 1
Source text: as §1

[5] = tested on: MDA-MB-231 cells; test: Monolayer growth inhibition, crystal violet assay; type: cell-based; details: Homo sapiens; MDA-MB-231 (TNBC), 5 days, single dose on day 1
Source text: as §1

[6] = tested on: PC3 cells; test: Monolayer growth inhibition, crystal violet assay; type: cell-based; details: Homo sapiens, PC-3; PC3 (Prostate), 5 days, single dose on day 1
Source text: as §1

[7] = tested on: SUM149 cells; test: Monolayer growth inhibition, crystal violet assay; type: cell-based; details: Homo sapiens; SUM149 (TNBC, BRCA Mutant), 5 days, single dose on day 1
Source text: as §1

[8] = tested on: MDA-MB-468 cells; test: Monolayer growth inhibition, Alamar blue assay; type: cell-based; details: Homo sapiens; MDA-MB-468 (TNBC), 5 days, single dose on day 1
Source text: as §1

[9] = tested on: HCC1937 cells; test: Monolayer growth inhibition, Alamar blue assay; type: cell-based; details: Homo sapiens; HCC1937 (TNBC, BRCA Mutant), 5 days, single dose on day 1
Source text: as §1

[10] = tested on: 4T1 cells; test: Monolayer growth inhibition, Alamar blue assay; type: cell-based; details: Mus musculus; 4T1 (TNBC), 5 days, single dose on day 1
Source text: as §1

[11] = tested on: HCC1143 cells; test: Monolayer growth inhibition, Alamar blue assay; type: cell-based; details: Homo sapiens; HCC1143 (TNBC), 5 days, single dose on day 1
Source text: as §1

[12] = tested on: MDA-MB-435 cells; test: Monolayer growth inhibition, Alamar blue assay; type: cell-based; details: Homo sapiens; MDA-MB-435 (Melanoma), 5 days, single dose on day 1
Source text: as §1

[13] = tested on: JIMT-1 cells; test: Monolayer growth inhibition, Alamar blue assay; type: cell-based; details: Homo sapiens; JIMT-1 (HER2), 5 days, single dose on day 1
Source text: as §1

[14] = tested on: MDA-MB-231 cells; test: Monolayer growth inhibition, Alamar blue assay; type: cell-based; details: Homo sapiens; MDA-MB-231 (TNBC), 5 days, single dose on day 1
Source text: as §1

[15] = tested on: PC3 cells; test: Monolayer growth inhibition, Alamar blue assay; type: cell-based; details: Homo sapiens, PC-3; PC3 (Prostate), 5 days, single dose on day 1
Source text: as §1

[16] = tested on: SUM149 cells; test: Monolayer growth inhibition, Alamar blue assay; type: cell-based; details: Homo sapiens; SUM149 (TNBC, BRCA Mutant), 5 days, single dose on day 1
Source text: as §1

[17] = tested on: All cell lines; test: Monolayer growth inhibition, Alamar blue assay, range over all cell lines; type: cell-based; details: 120 h; range of IC50 over all cell lines of the table; read-out: IC50 Values - Alamar Blue (5 Days), Range, All
Source text: as §1

[18] = tested on: phosphorylated Y-box binding protein-1 (YB-1) at serine 102 (P-YB-1S102); test: Immunoblotting of cell signalling, loss of P-YB-1 in MDA-MB-231 cells; details: Homo sapiens, MDA-MB-231, read-out: IC50 values for P-YB-1
Experimental: Following desired experimental conditions, breast cancer cell lines grown and treated in 6 well plates or 100 mm culture dishes (Grenier Bio-One) were placed on ice and the supernatant from each well was removed and the cells were washed in cold PBS. Following removal of PBS, cells were exposed to radioimmunoprecipitation assay (RIPA) buffer (50 mM Tris-HCl (pH 8), 150 mM NaCl, 1% NP-40, 0.5% sodium deoxycholate, 0.1% SDS; Fisher Scientific) supplemented with 1% phosphatase inhibitor (Fisher Scientific) and 1% protease inhibitor (Fisher Scientific) for 10 minutes. Samples were transferred to eppendorf tubes, vortexed and then centrifuged at 14 000 rpm for 10 minutes. Supernatants were collected as whole cell lysates.
To begin, the protein content of the lysates was measured using the Bicinchoninic Acid (BCA) Protein Assay Kit (Pierce), which included a protein standard curve generated with bovine serum albumin. Appropriate volumes of samples and loading buffer (50 mM Tris-HCl (pH 6.8), 2% SDS, 10% glycerol, 1% j-mercaptoethanol, 12.5 mM EDTA, 0.02% bromophenol blue) were mixed, ensuring that equal amounts of protein were loaded. For the majority of experiments in this study, 30 μg of protein per well was loaded. Samples were then resolved on SDS-PAGE (polyacrylamide gel electrophoresis) using various percentages of acrylamide gels (8%-12%), depending on the proteins of interest. SDS-PAGE was run in SDS running buffer (25 mM Tris, 192 mM glycine, 0.1% SDS) and then transferred to nitrocellulose membranes (Bio-Rad) in transfer buffer (48 mM Tris, 39 mM glycine, 20% (v/v) methanol) at 100 volts for 90 minutes at room temperature. Immunoblots were then blocked in 5% skim milk in tris-buffered saline with 0.1% Tween-20 (TBS-T; 50 mM Tris-HCl, pH 7.5, 150 mM NaCl, 0.1% (v/v) Tween-20 (Fisher Scientific)) for 1 to 2 hours. Immunoblots were then incubated with selected primary antibodies diluted in TBS-T with 0.1% gelatin (Bio-Rad) and 0.05% sodium azide (Alfa Aesar) overnight. Following washes with TBT-T 4 times for 8 to 10 minutes, immunoblots were incubated with appropriate secondary antibodies conjugated to horseradish peroxidise (Cell Signalling Technology) diluted in TBS-T plus 5% skim milk at a ratio of 1:5000 for 2 hours at room temperature. After an additional round of washes in TBS-T, immunoblots were exposed to combined enhanced chemiluminescence (ECL) reagents (Fisher Scientific) for 1 minute and developed using ChemiDoc MP Imaging System (Bio-Rad). For certain immunoblots, bands of proteins of interest were scanned and band intensity ratios were determined by densitometric analysis (ImageJ). […] Total YB-1 was used as a loading control (1:5000 Abcam). […] To assess whether cells are actively undergoing cell death, the activity of poly ADP ribose polymerase (PARP) (1:1000 CST) was also measured using the immunoblotting method.

[19] = tested on: MDA-MB-468 cells; test: Soft agar growth inhibition assay; type: cell-based, Human; details: Homo sapiens; MDA-MB-468 (TNBC), 14-22 days
[20] = tested on: All cell lines; test: Monolayer growth inhibition, crystal violet assay, range over all cell lines; type: cell-based; details: 120 h; range of IC50 over all cell lines of the table; read-out: IC50 Values - Crystal Violet (5 Days), Range, All
Source text: (§2) In all instances a single dose was given on day 1 of the experiment. […] Complete (100%) growth suppression was achievable with several of the compounds in multiple different cell lines.

[21] = tested on: SUM149-PTXR cells; test: Monolayer growth inhibition, Alamar blue assay; type: cell-based, Human; details: Homo sapiens; SUM149-PTXR (TNBC, BRCA Mutant), 5 days, single dose on day 1
Source text: as §1

[22] = tested on: T47D cells; test: Monolayer growth inhibition, Alamar blue assay; type: cell-based, Human; details: Homo sapiens; T47D (ER/PR), 5 days, single dose on day 1
Source text: as §1

[23] = tested on: MDA-MB-231 cells; test: Soft agar growth inhibition assay; type: cell-based; details: Homo sapiens; MDA-MB-231 (TNBC), 14-22 days; read-out: IC50 Values - Soft Agar (14-22 Days)
[24] = tested on: MDA-MB-468 cells; test: Monolayer growth inhibition, crystal violet assay; type: cell-based; details: Homo sapiens; MDA-MB-468 (TNBC), 5 days, single dose on day 1
Source text: as §2

[25] = tested on: HCC1937 cells; test: Monolayer growth inhibition, crystal violet assay; type: cell-based; details: Homo sapiens; HCC1937 (TNBC, BRCA Mutant), 5 days, single dose on day 1
Source text: as §2

[26] = tested on: T47D cells; test: Monolayer growth inhibition, crystal violet assay; type: cell-based; details: Homo sapiens; T47D (ER/PR), 5 days, single dose on day 1
Source text: as §2

[27] = tested on: JIMT-1 cells; test: Monolayer growth inhibition, crystal violet assay; type: cell-based; details: Homo sapiens; JIMT-1 (HER2), 5 days, single dose on day 1
Source text: as §2

[28] = Solubility assessment, 20 mg/ml solution; type: physicochemical; details: for Solubility, 20 mg/ml Solution: 100 mM in DMSO diluted in DMEM growth media to 20 mg/ml
Experimental: Solubility is an important property for therapeutic drug candidates. Poor solubility can lead to low bioavailability resulting in suboptimal drug delivery. It can also prevent the evaluation of test agents in animals because the concentration(s) needed to achieve the desired effect cannot be achieved to poor solubility. For solubility assessments, small molecules targeting RSK were compared. For these assessments, 100 mM solutions of the compounds dissolved in DMSO were diluted in DMEM growth media (Life Technologies) supplemented with fetal bovine serum (FBS, Life Technologies) and 100 units/ml penicillin and 100 units/ml streptomycin (Life Technologies) to make 20 mg/ml solutions. Once diluted, the solutions were vortexed and examined for the formation of precipitates. […] For Compound 26, a 100 mM solution of the compound dissolved in DMSO was diluted in phosphate buffered saline (Life Technologies) to make a 20 mg/ml solution. The stock of […] was chosen because this is the upper end of what would be required to dose mice for a range of studies including MTD, PK, PD and efficacy. The pH of this solution was determined to be 2, as previously described. […] At high concentrations some RSK inhibitors were highly soluble while others were not. Compound 0 is (R)—N-(1-benzyl-1H-pyrazol-4-yl)-9-methyl-6-oxo-6,7,8,9-tetrahydropyrido[3′,2′:4,5]pyrrolo[1,2-a]pyrazine-2-carboxamide. Compound 0 was not soluble, whereas Compounds 18, 20, 21, 25 and 26 were soluble under the same conditions (Table 5).

[29] = tested on: 4T1 cells; test: Soft agar growth inhibition assay; type: cell-based; details: Mus musculus; 4T1 (TNBC), 14-22 days; read-out: IC50 Values - Soft Agar (14-22 Days)
Experimental: Two agar (Alfa Aesar) solutions (0.8% w/v and 0.4% w/v) were prepared in ultrapure water. The 0.8% agar solution was mixed in equal volumes with 2× media previously prepared from powder (Life Technologies) following the manufacturer's instructions and filter sterilized. The 0.8% agar and media solution was added to 24 well plates (Mandel Scientific) at 500 μl per well. The plates were placed in a humidified incubator at 37° C. with 5% CO2. Next, the 0.4% agar solution was mixed in equal volumes with 2× media. Breast cancer cell lines were added to this solution to achieve a final concentration of 2×10^4 cells per well and […] was added to each well on top of the bottom agar and media layer. […] The plates were returned to the incubator for 10-32 days, with a re-dosing of compounds or DMSO every 7 days. After 10-32 days, colonies were counted in 3 different fields of view for each well.
Representative compounds described herein were tested in the soft agar growth inhibition assay against the 4T1 breast cancer cell line.

Compound	IC50 [1]	IC50 [2]	IC50 [3]	IC50 [4]	IC50 [5]	IC50 [6]	IC50 [7]	IC50 [8]	IC50 [9]	IC50 [10]	IC50 [11]	IC50 [12]	IC50 [13]	IC50 [14]	IC50 [15]	IC50 [16]	IC50 [17]	IC50 [19]	IC50 [20]	IC50 [21]	also measured
C[C@@H]1CNC(=O)c2c(Cl)c3ccc(C(=O)Nc4cnn(Cc5ccccc5)c4)nc3n21 [Compound 24, (R)—N-(1-benzyl-1H-pyrazol-4-yl)-5-chloro-9-methyl-6-oxo-6,7,8,9-tetrahydropyrido[3′,2′:4,5]pyrrolo[1,2-a]pyrazine-2-carboxamide]	4.5 ± 1.4 µM	300 ± 100 nM	5.8 ± 2.6 µM	5 ± 3.6 µM	9.1 ± 1.3 µM	6.5 ± 2.8 µM	900 ± 300 nM	4.5 ± 2.3 µM	9.2 ± 3.2 µM	500 ± 300 nM	4.4 ± 1.9 µM	5.6 ± 0.1 µM	12.3 ± 5.9 µM	9.8 ± 3.1 µM	12 ± 4.5 µM	1100 ± 900 nM	0.5 to 12.3 µM	2500 ± 2000 nM	0.3 to 9.1 µM	3400 ± 2100 nM	IC50 [18]: 16 nM; IC50 [22]: 4.5 ± 4.1 µM; IC50 [23]: 400 ± 200 nM; IC50 [24]: 3.3 ± 1.3 µM; IC50 [25]: 5.8 ± 0.4 µM; IC50 [26]: 2.7 ± 2.1 µM; IC50 [27]: 7.5 ± 2.2 µM; Solubility, 20 mg/ml Solution [28]: Precipitate; IC50 [29]: 700 ± 300 nM
C[C@@H]1CNC(=O)c2cc3ccc(C(=O)Nc4ccccc4C(N)=O)nc3n21 [Compound 21, (R)—N-(2-carbamoylphenyl)-9-methyl-6-oxo-6,7,8,9-tetrahydropyrido[3′,2′:4,5]pyrrolo[1,2-a]pyrazine-2-carboxamide]	2 ± 0.2 µM	1100 ± 700 nM	9.5 ± 5.6 µM	4.8 ± 2.1 µM	9.1 ± 0.8 µM	4.3 ± 0.5 µM	2400 ± 1300 nM	6.5 ± 4.5 µM	8.3 ± 2.4 µM	1200 ± 300 nM	5.4 ± 3.7 µM	8.3 ± 5.3 µM	12.6 ± 6.4 µM	14.7 ± 4.3 µM	7.1 ± 0.9 µM	2700 ± 1300 nM	1.2 to 14.7 µM	400 ± 100 nM	1.1 to 11.3 µM	1500 ± 800 nM	IC50 [22]: 8 ± 3.8 µM; IC50 [23]: 2000 ± 1000 nM; IC50 [24]: 4.6 ± 1.4 µM; IC50 [25]: 11 ± 1 µM; IC50 [26]: 3.7 ± 2.7 µM; IC50 [27]: 11.3 ± 4.1 µM; Solubility, 20 mg/ml Solution [28]: Soluble; pH of 20 mg/ml solution ([28]; DMSO stock diluted in DMEM, pH test strips): 9; IC50 [29]: 3100 ± 600 nM
